Results as given in patent publication US8785452B2, “Anti-infective compounds” (priority 2008, dated 2014).
Where two headings read alike, the source gives them in different places.

Key:
Raw264.7 cells = test: Cell number (CellNb) from image analysis of the phenotypic cell-based assay
[1] = tested on: M. tuberculosis H37Rv-GFP; test: microbe, parasite or virus in culture; assay type: cell-based; settings: Mycobacterium tuberculosis; for inhibition at 0.2 µM: read-out: QUM Confirm % Inhibition 0.2 uM; for inhibition at 2 µM: read-out: QUM Confirm % Inhibition 2 uM; for inhibition at 20 µM: read-out: QUM Confirm % Inhibition 20 uM
[2] = tested on: M. tuberculosis H37Rv-GFP; test: microbe, parasite or virus in culture; assay type: cell-based, Mycobacterium tuberculosis; settings: Mycobacterium tuberculosis, H37RV, Macrophage; for inhibition at 0.2 µM: read-out: QIM Confirm % Inhibition 0.2 uM; for inhibition at 2 µM: read-out: QIM Confirm % Inhibition 2 uM
[3] = confirmation, 0.2 uM, intracellular
[4] = confirmation, 2 uM, intracellular
[5] = confirmation, 20 uM, read-out: QIM Confirm % Inhibition 20 uM
[6] = primary screen, 20 μM, read-out: Primary QIM % Inhibition
[7] = read-out: Primary QIM % Inhibition
[8] = read-out: QIM Confirm % Inhibition 20 uM

Row | Compound | QIM Confirm CellNb 0.2 uM (Raw264.7 cells; confirmation, 0.2 uM) | QIM Confirm CellNb 2 uM (Raw264.7 cells; confirmation, 2 uM) | QIM Confirm CellNb 20 uM (Raw264.7 cells; confirmation, 20 uM) | Primary QIM CellNb (Raw264.7 cells; primary screen, 20 μM) | inhibition at 0.2 µM [1] [%] | inhibition at 2 µM [1] [%] | inhibition at 20 µM [1] [%] | inhibition at 0.2 µM [2, 3] [%] | inhibition at 2 µM [2, 4] [%] | inhibition at 20 µM [2, 5] [%] | inhibition at 20 µM [2, 6] [%] | Primary QIM CellNb (Raw264.7 cells) | QIM Confirm CellNb 0.2 uM (Raw264.7 cells) | QIM Confirm CellNb 2 uM (Raw264.7 cells) | QIM Confirm CellNb 20 uM (Raw264.7 cells) | inhibition at 20 µM [2, 7] [%] | inhibition at 0.2 µM [2] [%] | inhibition at 2 µM [2] [%] | inhibition at 20 µM [2, 8] [%]
1 | CCOC(=O)/N=C(\NC(C)=O)c1cccc(Cl)c1 [IPK 000 033 61] | 210.8 | 434.1 | 111.8 | 188.3 | 51.6 | 37.6 | 67.1 | 16.2 | 13.8 | 62.9 | 31.6 | – | – | – | – | – | – | – | –
2 | O=C(N/N=C/C=C/c1ccccc1)c1ccncc1 [IPK 000 013 68] | 400.1 | 528.8 | 438.8 | 276.3 | 50.4 | 77.1 | 77.6 | 50.9 | 102 | 67.2 | 65 | – | – | – | – | – | – | – | –
3 | O=C(/C=C/c1ccc(Cl)cc1Cl)c1ccc(Cl)cc1 [IPK 000 015 36] | 331.0 | 286.0 | 168.0 | 146.5 | 41.9 | 59.4 | 79.5 | 15.8 | -4.8 | 36.1 | 38.1 | – | – | – | – | – | – | – | –
4 | C/C(=N\NC(N)=S)c1ccc(Cl)cc1 [IPK 000 002 17] | – | – | – | – | 56.9 | 67.4 | 49.7 | – | – | – | – | 235.5 | 472.3 | 541.6 | 249.8 | 26.6 | 54.5 | 70.4 | 24.5
5 | CCCCS(=O)(=O)/C=C\C=C\S(=O)(=O)CCCC [IPK 000 036 07] | 267.4 | 293.9 | 164.4 | 142.3 | 42.3 | 47.9 | 70.6 | 17.2 | 32 | 59.5 | 27.7 | – | – | – | – | – | – | – | –
6 | O=C(NN=C1CCCC1)c1ccncc1 [IPK 000 013 70] | 412.6 | 510.9 | 518.5 | 309.3 | 46.3 | 79.4 | 67.6 | 50.5 | 98.1 | 103 | 88.3 | – | – | – | – | – | – | – | –
7 | O=C(N/N=C/c1cc(Br)c(Br)o1)c1ccncc1 [IPK 000 009 41] | 257.8 | 488.3 | 446.5 | 345.8 | 28.3 | 59.6 | 99.4 | 19.6 | 92.8 | 99.6 | 92.9 | – | – | – | – | – | – | – | –
8 | O=C(Nc1ccc([N+](=O)[O-])cc1)C12CC3CC(CC(C3)C1)C2 [IPK 000 022 33] | 315.6 | 472.3 | 517.1 | 372.0 | 35.7 | 45.4 | 74.2 | 30.3 | 33.5 | 90 | 66 | – | – | – | – | – | – | – | –
9 | O=C(NCc1ccc2c(c1)OCO2)c1cc([N+](=O)[O-])cc([N+](=O)[O-])c1 [IPK 000 027 85] | 429.3 | 487.4 | 224.8 | 315.0 | 97.2 | 97.9 | 71.7 | 83 | 99.4 | 40.1 | 100 | – | – | – | – | – | – | – | –
10 | O=C(N/N=C/c1cccc(Br)c1)C1C2CC/C=C\CCC21 (stereo not drawn) [IPK 000 010 06] | 412.0 | 344.9 | 380.9 | 322.8 | 39.5 | 43.1 | 39.2 | 17.1 | 18 | 81.8 | 81 | – | – | – | – | – | – | – | –
11 | O=C(N/N=C/c1ccco1)c1ccncc1 [IPK 000 013 67] | – | – | – | – | 49.4 | 90.2 | 69.7 | – | – | – | – | 358.0 | 452.5 | 545.1 | 457.3 | 98.7 | 84.1 | 102 | 66.7
12 | CCc1nnc(NS(=O)(=O)c2ccc(N)cc2)s1 [IPK 000 035 58] | 292.3 | 330.0 | 279.9 | 104.0 | 45.1 | 46.4 | 65.3 | 5.1 | 34.4 | 2.8 | -51.3 | – | – | – | – | – | – | – | –
13 | COc1cccc(OCCNC(=O)c2cc([N+](=O)[O-])cc([N+](=O)[O-])c2)c1 [IPK 000 027 77] | – | – | – | – | 40.2 | 96.8 | 100 | – | – | – | – | 378.0 | 218.1 | 315.3 | 322.3 | 89.1 | -12.6 | 47.7 | 86.3
14 | O=C1c2ccccc2-c2nc3nonc3nc21 [IPK 000 011 19] | 248.8 | 80.0 | 279.1 | 190.8 | 67.2 | 93.2 | 43.1 | 9.7 | 31.6 | 47.6 | 60 | – | – | – | – | – | – | – | –
15 | O=C(NN=C1CCCCC1)c1ccncc1 [IPK 000 013 72] | 448.5 | 541.6 | 457.3 | 355.5 | 57.7 | 73.9 | 98 | 63.2 | 104 | 101 | 82.2 | – | – | – | – | – | – | – | –
16 | C/C(=N\NOCc1cc([N+](=O)[O-])cc([N+](=O)[O-])c1)c1ccccc1 [IPK 000 035 56] | 247.1 | 313.1 | 524.3 | 266.0 | 41.5 | 39.6 | 65.6 | 9.1 | 18.8 | 89 | 83.3 | – | – | – | – | – | – | – | –
17 | O=C1Nc2ccccc2/C1=N/NC(=O)c1ccncc1 [IPK 000 006 35] | 262.8 | 320.9 | 328.8 | 424.3 | 23.7 | 41.9 | 43.4 | 17.7 | 22.8 | 65.2 | 97.6 | – | – | – | – | – | – | – | –
18 | O=C(Nc1ccc(Oc2ccccc2)cc1)C1CCCO1 (stereo not drawn) [IPK 000 033 16] | 296.1 | 573.9 | 303.9 | 283.0 | 34.1 | 42 | 61.3 | 5 | 69.6 | 92.3 | 81.9 | – | – | – | – | – | – | – | –
19 | O=C(N/N=C\c1ccc(Cl)s1)c1ccncc1 [IPK 000 009 42] | 326.3 | 473.5 | 255.0 | 376.5 | 28.8 | 50.3 | 100 | 21.3 | 92.3 | 97.9 | 93.1 | – | – | – | – | – | – | – | –
20 | O=C(CSc1cccs1)Nc1nccs1 [IPK 000 002 87] | 315.9 | 246.1 | 412.9 | 350.3 | 45.9 | 36.1 | 36.4 | 11.4 | -1.3 | 66 | 65.9 | – | – | – | – | – | – | – | –
21 | O=C(N/N=C/c1cccc2ccccc12)c1ccncc1 [IPK 000 041 46] | 386.9 | 542.6 | 347.1 | 320.0 | 41.1 | 81.4 | 57.9 | 41.8 | 101 | 93.3 | 81.2 | – | – | – | – | – | – | – | –
